Data published in PubChem BioAssay (NCI).
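48-hour exposure; five concentrations; linearly interpolated endpoints. TGI denotes the concentration required for complete inhibition of growth.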

Legend:
Test in all cases: growth of human tumour cells (NCI), 48 h
786-0 renal = system: 786-0 renal
MOLT-4 leukemia = system: MOLT-4 leukemia
HCC-2998 colon = system: HCC-2998 colon
OVCAR-5 ovarian = system: OVCAR-5 ovarian
OVCAR-4 ovarian = system: OVCAR-4 ovarian
IGROV1 ovarian = system: IGROV1 ovarian
NCI-H522 lung = system: NCI-H522 lung
K-562 leukemia = system: K-562 leukemia
PC-3 prostate = system: PC-3 prostate
RPMI-8226 leukemia = system: RPMI-8226 leukemia
HL-60(TB) leukemia = system: HL-60(TB) leukemia
SK-MEL-28 melanoma = system: SK-MEL-28 melanoma
SN12C renal = system: SN12C renal
COLO 205 colon = system: COLO 205 colon
HCT-15 colon = system: HCT-15 colon
A498 renal = system: A498 renal
MCF7 breast = system: MCF7 breast
SF-268 CNS = system: SF-268 CNS
SF-539 CNS = system: SF-539 CNS
SF-295 CNS = system: SF-295 CNS
MDA-MB-231 breast = system: MDA-MB-231 breast
MDA-N = system: MDA-N
DU-145 prostate = system: DU-145 prostate
BT-549 breast = system: BT-549 breast
NCI/ADR-RES ovarian = system: NCI/ADR-RES ovarian
HCT-116 colon = system: HCT-116 colon
SNB-19 CNS = system: SNB-19 CNS
TK-10 renal = system: TK-10 renal
HOP-92 NSCLC = system: HOP-92 NSCLC
HS 578T breast = system: HS 578T breast
U251 CNS = system: U251 CNS
SNB-75 CNS = system: SNB-75 CNS
OVCAR-3 ovarian = system: OVCAR-3 ovarian
UACC-257 melanoma = system: UACC-257 melanoma
EKVX NSCLC = system: EKVX NSCLC
OVCAR-8 ovarian = system: OVCAR-8 ovarian
KM12 colon = system: KM12 colon
SW-620 colon = system: SW-620 colon
ACHN renal = system: ACHN renal
NCI-H23 lung = system: NCI-H23 lung
NCI-H460 lung = system: NCI-H460 lung
A549 NSCLC = system: A549 NSCLC
HT29 colon = system: HT29 colon
LOX IMVI melanoma = system: LOX IMVI melanoma
SK-MEL-5 melanoma = system: SK-MEL-5 melanoma
NCI-H226 lung = system: NCI-H226 lung
UO-31 renal = system: UO-31 renal
CAKI-1 renal = system: CAKI-1 renal
SR leukemia = system: SR leukemia
MDA-MB-435 = system: MDA-MB-435
HOP-62 NSCLC = system: HOP-62 NSCLC
RXF 393 renal = system: RXF 393 renal
CCRF-CEM leukemia = system: CCRF-CEM leukemia
MALME-3M melanoma = system: MALME-3M melanoma
SK-OV-3 ovarian = system: SK-OV-3 ovarian
M14 melanoma = system: M14 melanoma

In the case of O=[N+]([O-])c1ccc2c(c1)Sc1ccccc1N2CCCCCl, the TGI (786-0 renal) is reported as > 100 µM, the TGI (MOLT-4 leukemia) is reported as > 100 µM and the TGI (HCC-2998 colon) is reported as > 100 µM. For the same compound, the TGI (OVCAR-5 ovarian) was > 100 µM, the TGI (OVCAR-4 ovarian) was > 100 µM and the TGI (IGROV1 ovarian) was > 100 µM. For the same compound, the TGI (NCI-H522 lung) was > 100 µM, the TGI (K-562 leukemia) was > 100 µM and the TGI (PC-3 prostate) was > 100 µM. The TGI (RPMI-8226 leukemia) was > 100 µM, the TGI (HL-60(TB) leukemia) was > 100 µM and the TGI (SK-MEL-28 melanoma) was > 100 µM. The TGI (SN12C renal) was > 100 µM, the TGI (COLO 205 colon) was > 100 µM and the TGI (HCT-15 colon) was > 100 µM. The TGI (A498 renal) was > 100 µM, the TGI (MCF7 breast) was > 100 µM and the TGI (SF-268 CNS) was > 100 µM. For the same compound, the TGI (SF-539 CNS) was > 100 µM, the TGI (SF-295 CNS) was > 100 µM and the TGI (MDA-MB-231 breast) was > 100 µM. For the same compound, the TGI (MDA-N) was > 100 µM, the TGI (DU-145 prostate) was > 100 µM and the TGI (BT-549 breast) was > 100 µM. For the same compound, the TGI (NCI/ADR-RES ovarian) was > 100 µM, the TGI (HCT-116 colon) was > 100 µM and the TGI (SNB-19 CNS) was > 100 µM. For the same compound, the TGI (TK-10 renal) was > 100 µM, the TGI (HOP-92 NSCLC) was > 100 µM and the TGI (HS 578T breast) was > 100 µM. The TGI (U251 CNS) was > 100 µM, the TGI (SNB-75 CNS) was > 100 µM and the TGI (OVCAR-3 ovarian) was > 100 µM. The TGI (UACC-257 melanoma) was > 100 µM, the TGI (EKVX NSCLC) was > 100 µM and the TGI (OVCAR-8 ovarian) was > 100 µM. The TGI (KM12 colon) was > 100 µM, the TGI (SW-620 colon) was > 100 µM and the TGI (ACHN renal) was > 100 µM. The TGI (NCI-H23 lung) was > 100 µM, the TGI (NCI-H460 lung) was > 100 µM and the TGI (A549 NSCLC) was > 100 µM. The TGI (HT29 colon) was > 100 µM, the TGI (LOX IMVI melanoma) was > 100 µM and the TGI (SK-MEL-5 melanoma) was > 100 µM. For the same compound, the TGI (NCI-H226 lung) was > 100 µM, the TGI (UO-31 renal) was > 100 µM and the TGI (CAKI-1 renal) was > 100 µM. For the same compound, the TGI (SR leukemia) was > 100 µM, the TGI (MDA-MB-435) was > 100 µM and the TGI (HOP-62 NSCLC) was > 100 µM. For the same compound, the TGI (RXF 393 renal) was > 100 µM and the TGI (CCRF-CEM leukemia) was > 100 µM.

With COc1nc(N)c(C#N)c(C#N)c1C#N the TGI (786-0 renal) was > 10 µM, the TGI (MOLT-4 leukemia) was > 10 µM and the TGI (HCC-2998 colon) was > 10 µM. The TGI (OVCAR-5 ovarian) was > 10 µM, the TGI (OVCAR-4 ovarian) was > 10 µM and the TGI (NCI-H522 lung) was > 10 µM. The TGI (K-562 leukemia) was > 10 µM, the TGI (PC-3 prostate) was > 10 µM and the TGI (MALME-3M melanoma) was > 10 µM. For the same compound, the TGI (RPMI-8226 leukemia) was > 10 µM, the TGI (HL-60(TB) leukemia) was > 10 µM and the TGI (SK-MEL-28 melanoma) was > 10 µM. The TGI (SN12C renal) was > 10 µM, the TGI (COLO 205 colon) was > 10 µM and the TGI (HCT-15 colon) was > 10 µM. The TGI (MCF7 breast) was > 10 µM, the TGI (SF-268 CNS) was > 10 µM and the TGI (SF-539 CNS) was > 10 µM. For the same compound, the TGI (SF-295 CNS) was > 10 µM, the TGI (SK-OV-3 ovarian) was > 10 µM and the TGI (MDA-MB-231 breast) was > 10 µM. The TGI (MDA-N) was > 10 µM, the TGI (DU-145 prostate) was > 10 µM and the TGI (BT-549 breast) was > 10 µM. For the same compound, the TGI (NCI/ADR-RES ovarian) was > 10 µM, the TGI (HCT-116 colon) was > 10 µM and the TGI (SNB-19 CNS) was > 10 µM. For the same compound, the TGI (TK-10 renal) was > 10 µM, the TGI (HOP-92 NSCLC) was > 10 µM and the TGI (HS 578T breast) was > 10 µM. The TGI (U251 CNS) was > 10 µM, the TGI (SNB-75 CNS) was > 10 µM and the TGI (OVCAR-3 ovarian) was > 10 µM. The TGI (UACC-257 melanoma) was > 10 µM, the TGI (M14 melanoma) was > 10 µM and the TGI (OVCAR-8 ovarian) was > 10 µM. For the same compound, the TGI (KM12 colon) was > 10 µM, the TGI (SW-620 colon) was > 10 µM and the TGI (ACHN renal) was > 10 µM. The TGI (NCI-H23 lung) was > 10 µM, the TGI (A549 NSCLC) was > 10 µM and the TGI (HT29 colon) was > 10 µM. For the same compound, the TGI (LOX IMVI melanoma) was > 10 µM, the TGI (SK-MEL-5 melanoma) was > 10 µM and the TGI (CAKI-1 renal) was > 10 µM. The TGI (SR leukemia) was > 10 µM, the TGI (MDA-MB-435) was > 10 µM and the TGI (HOP-62 NSCLC) was > 10 µM.
